Data set [1] deals with rhinovirus A1B. Kind of data set: Antiviral activity against Human rhinovirus 1B infected in human HeLa cells assessed as reduction in virus-induced cytopathic effect after 2 days by SRB staining based microscopic method. The note with it: Rhinovirus A, 48 h. Format: functional, organism-based. (In general: Protection from cytopathic effect is a common read-out in antiviral testing.)

Data set [2] is described as follows: Selectivity index, ratio of CC50 for human HeLa cells to IC50 for Human rhinovirus 1B infected in human HeLa cells. The data set is classed as toxicity, cell-based. The note with it: read-out: Ratio CC50/IC50.
Data set [3] is described as follows: Cytotoxicity against human HeLa cells assessed as growth inhibition after 2 days by SRB assay. Format: cell-based. On the technique in general: Sulforhodamine B stains cellular protein and so reports cell mass.
A short description of data set [4]: Selectivity index, ratio of CC50 for African green monkey Vero cells to IC50 for Coxsackievirus B3 infected in African green monkey Vero cells. Format: toxicity. The following applies: read-out: Ratio CC50/IC50.
Data set [5] in a line: Cytotoxicity against African green monkey Vero cells assessed as growth inhibition after 2 days by SRB assay. The data set is classed as cell-based. The note with it: chlorocebus sabaeus.
The subject of data set [6] is Coxsackievirus B3. The experiment in a line: Antiviral activity against Coxsackievirus B3 infected in African green monkey Vero cells assessed as reduction in virus-induced cytopathic effect after 2 days by SRB staining based microscopic method. The data set is classed as functional, organism-based. The following applies: Enterovirus B, 48 h.

Turning to `COc1ccc(C[C@H]2COC(=O)[C@@H]2Cc2ccc(Oc3cc(C[C@H]4C(=O)OC[C@@H]4Cc4ccc(OC)c(OC)c4)cc(OC)c3O)c(OC)c2)cc1OC`, the IC50 in data set [1] worked out at 13 µM. Besides, in data set [2], the selectivity ratio was more than 3.8. Moreover, the CC50 at 48 h in data set [3] is more than 50 µM.

As for `COc1cc(C[C@H]2COC(=O)[C@@H]2Cc2cc(OC)c(O)c(-c3cc(C[C@H]4C(=O)OC[C@@H]4Cc4ccc(OC)c(OC)c4)cc(OC)c3O)c2)ccc1O`, the IC50 in data set [1] amounted to 47.5 µM. Moreover, the selectivity ratio in data set [2] is more than 1.1. Also, the CC50 at 48 h in data set [3] is more than 50 µM.

Take `COc1cc(C[C@H]2C(=O)OC[C@@H]2Cc2cc(OC)c(O)c(-c3cc(C[C@H]4C(=O)OC[C@@H]4Cc4ccc(OC)c(OC)c4)cc(OC)c3O)c2)ccc1O`: the IC50 in data set [1] stood at 45.7 µM. Also, the selectivity ratio in data set [2] is more than 1.1. The CC50 at 48 h in data set [3] was more than 50 µM.

In the case of `COc1cc([C@@H](OC)[C@@H]2CO[C@H](c3ccc(O)c(OC)c3)[C@@H]2CO)ccc1O` (relative stereo), the selectivity ratio in data set [4] was more than 3.2. For the same compound, the CC50 at 48 h in data set [5] was more than 50 µM. For the same compound, the IC50 in data set [6] was 15.4 µM.

For the compound `COc1cc(C[C@H]2COC(=O)[C@@H]2Cc2ccc(O)c(OC)c2)ccc1O` [MATAIRESINOL], in data set [1], the IC50 was determined as 43.2 µM. In addition, in data set [2], the selectivity ratio is more than 1.2. Moreover, the CC50 at 48 h in data set [3] is more than 50 µM.

On to `CCOC(=O)/C=C/[C@H](C[C@@H]1CCNC1=O)NC(=O)[C@@H](CC(=O)[C@@H](NC(=O)c1cc(C)on1)C(C)C)Cc1ccc(F)cc1` [RUPINTRIVIR], for which, in data set [4], the selectivity ratio was more than 7.6. Moreover, the CC50 at 48 h in data set [5] and in data set [3] was more than 50 µM throughout. Besides, the IC50 in data set [6] is 6.6 µM.

As usually defined, the IC50 is the midpoint of a concentration-inhibition curve. Broadly, the CC50 is the concentration giving 50% cytotoxicity.
